Assay results reported in patent US11021475B2, “Amide-substituted heterocyclic compounds useful as modulators of IL-12, IL-23 and/or IFN alpha responses” (Bristol-Myers Squibb Company, priority 2012, dated 2021).

Key:
[1] = tested on: IL-23 stimulated Kit225 T cells (STAT-dependent luciferase reporter); assay: Kit225 T cell assay, IL-23-stimulated STAT-dependent luciferase reporter; format: cell-based, human; conditions: 20 ng/mL human recombinant IL-23, 5-6 hours; read-out: IL-23 Kit225 Reporter (IC50)
How it was run: (§1)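 Kit225 T cells carrying a stable STAT-dependent luciferase reporter, stimulated 5-6 h with 20 ng/mL human IL-23 or 200 U/mL human IFNα. Luminescence read out; % inhibition derived against unstimulated (100%) and no-inhibitor (0%) controls.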

[2] = tested on: IFNα stimulated Kit225 T cells (STAT-dependent luciferase reporter); assay: Kit225 T cell assay, IFNα-stimulated STAT-dependent luciferase reporter; format: cell-based, human; conditions: 200 U/mL human recombinant IFNα, 5-6 hours; read-out: IFNα Kit225 Reporter (IC50)
How it was run: as §1

[3] = target: His-tagged protein corresponding to amino acids 575-869 of human Tyk2 (Homo sapiens (Human), UniProt P29597); assay: Probe displacement assay (scintillation proximity, radiolabeled probe); format: binding; conditions: 2.5 nM Tyk2 (575-869), 40 nM [3H] probe, 30 minutes at room temperature
Chain of His-tagged protein corresponding to amino acids 575-869 of human Tyk2 (P29597 other isoform, or with tags, fused parts or gaps): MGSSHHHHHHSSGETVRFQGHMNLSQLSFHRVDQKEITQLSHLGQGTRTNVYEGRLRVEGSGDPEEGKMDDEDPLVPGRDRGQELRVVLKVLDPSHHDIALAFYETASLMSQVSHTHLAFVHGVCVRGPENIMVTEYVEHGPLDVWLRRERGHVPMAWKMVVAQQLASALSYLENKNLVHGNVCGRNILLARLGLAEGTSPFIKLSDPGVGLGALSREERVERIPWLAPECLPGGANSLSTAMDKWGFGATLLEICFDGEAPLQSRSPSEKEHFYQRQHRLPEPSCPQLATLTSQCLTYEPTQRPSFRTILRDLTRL
Method: The probe displacement assay is conducted as follows: In a […], test compounds along with recombinantly expressed His-tagged protein corresponding to amino acids 575-869 of human Tyk2 (sequence shown below) at 2.5 nM, 40 nM ((R)—N-(1-(3-(8-methyl-5-(methylamino)-8H-imidazo[4,5-d]thiazolo[5,4-b]pyridin-2-yl)phenyl)ethyl)-2-([^3H]methylsulfonyl)benzamide) (preparation described below) and 80 μg/mL Copper His-Tag scintillation proximity assay beads (Perkin Elmer, Catalog #RPNQ0095) in 50 mM HEPES, pH 7.5, containing 100 μg/mL bovine serum albumin and 5% DMSO were incubated for 30 minutes at room temperature.
Protein Sequence of recombinant Hig-tagged Tyk2 (575-869):
The preparation of radiolabeled probe, (R)—N-(1-(3-(8-methyl-5-(methylamino)-8H-imidazo[4,5-d]thiazolo[5,4-b]pyridin-2-yl)phenyl)ethyl)-2-([^3H]methylsulfonyl)benzamide, was performed as described below.

Row | IC50 [1] | IC50 [2] | EC50 [3] | SMILES
1 | 30 nM | 3.67 nM | 5.72 nM | CNC(=O)c1nnc(Nc2cc(C)nc(C)n2)cc1Nc1cccc(-c2nc(C)n(C)n2)c1OC [Example 183]
2 | 20 nM | 9.39 nM | 1.28 nM | CNC(=O)c1nnc(Nc2cc(C(C)O)ccn2)cc1Nc1cccc(-c2ncn(C)n2)c1OC (stereo not drawn) [Example 84]
3 | 8.29 nM | 3.77 nM | 1.89 nM | CNC(=O)c1nnc(Nc2cc(C)nc(COC)n2)cc1Nc1cccc(-c2ncn(C)n2)c1OC [Example 114]
4 | 40 nM | 20 nM | 7.19 nM | CNC(=O)c1nnc(Nc2cc(COC)ccn2)cc1Nc1ccccc1S(C)(=O)=O [Example 51]
5 | 30 nM | 10 nM | 5.64 nM | CNC(=O)c1nnc(Nc2cc(NC(=O)C3CC3)nc(C)n2)cc1Nc1cccc(-c2ncn(C)n2)c1OC [Example 134]
6 | 7.49 nM | 3.72 nM | 1.94 nM | CNC(=O)c1nnc(Nc2cnccn2)cc1Nc1cccc(-c2ncccn2)c1OC [Example 112]
7 | 8.49 nM | 3.54 nM | 1.46 nM | CNC(=O)c1nnc(Nc2cc(C)nc(C)n2)cc1Nc1cccc(-c2ncn(C)n2)c1OC [Example 108]
8 | 410 nM | 310 nM | 70 nM | CNC(=O)c1nnc(NC(=O)C2CC2)cc1Nc1cccc(-c2cnc(C)s2)c1OC [Example 160]
9 | 20 nM | 20 nM | 7.22 nM | CNC(=O)c1nnc(Nc2ccccn2)cc1Nc1cccc(-c2nnc(C)o2)c1OC [Example 151]
10 | 1.01 nM | 4.42 nM | 0.877 nM | CNC(=O)c1nnc(Nc2ccccn2)cc1Nc1cccc(-c2nnn(C)n2)c1OC [Example 147]
11 | 590 nM | 430 nM | 90 nM | CNC(=O)c1nnc(NC(=O)C2CC2)cc1Nc1cccc(-c2nnc(C)s2)c1OC [Example 154]
12 | 80 nM | 50 nM | 5.21 nM | CNC(=O)c1nnc(Nc2ccccn2)cc1Nc1cccc(-c2nc(C)cs2)c1OC [Example 73]
13 | 1.99 nM | 3.49 nM | 6.17 nM | CNC(=O)c1nnc(Nc2ccccn2)cc1Nc1cccc(-c2ncn(C)n2)c1OC [Example 76]
14 | 380 nM | 160 nM | 70 nM | CNC(=O)c1nnc(NC(=O)C2CC2)cc1Nc1cccc(-c2ccc(C)nn2)c1OC [Example 69]
15 | 2300 nM | 1150 nM | 130 nM | CCNC(=O)c1nnc(Nc2ccc(F)cn2)cc1Nc1ccccc1S(C)(=O)=O [Example 4]
16 | 10 nM | 5.33 nM | 1.7 nM | CNC(=O)c1nnc(NC(=O)C2CC2)cc1Nc1cccc(-c2nnn(C)n2)c1OC [Example 146]

Row | SMILES | IC50 [1] | IC50 [2] | EC50 [3]
17 | CS(=O)(=O)c1ccccc1Nc1cc(Nc2ccc(F)cn2)nnc1C(=O)NC1CC1 [Example 5] | 12500 nM | 6360 nM | 410 nM
18 | CNC(=O)c1nnc(NC(=O)C2CC2)cc1Nc1cccc(-c2cnn(CCF)c2)c1OC [Example 186] | 170 nM | 80 nM | 60 nM
